Test [1] concerns the target human sortilin (S-18 cells) (Homo sapiens (Human), UniProt Q99523). In words: Endogenous PGRN endocytosis assay (PGRN ELISA of media). Particulars: PGRN allowed to accumulate 24 hrs, compounds added day 2, further 24 hrs. In kind it is cell-based. For orientation: ELISA stands for enzyme-linked immunosorbent assay.
Procedure: Stable cell lines expressing human sortilin (S-18) were generated by transfecting HEK293 cells with a human sortilin expression vector, followed by few rounds of passage with the appropriate selection agent.
On day1, S-18 cells are seeded in a 96 well plate. After 24 hrs, media is completely replaced with either media or one of the test compounds. All compounds were tested at 10 μM unless otherwise specified. Media is collected on day 3 and analyzed using PGRN ELISA (R&D). Cell viability is assessed by Cell TiterGlo (ProMega) to evaluate cytotoxic effect of the compounds.
On day 2, the compounds are added to the cells and incubated for a further 24 hrs, when the media is harvested and PGRN levels analyzed using ELISA kit.
A further test concerns the target hSortilin (Homo sapiens (Human), UniProt Q99523). The test is described as follows: hSortilin affinity assay: displacement of 3H-neurotensin binding, SPA format. Particulars: read-out: hSortilin NTS Binding, Inhibition at 50 μM. (In a radioligand displacement assay an active substance lowers the binding of a labelled ligand.)

Chain of human sortilin (S-18 cells) (Q99523 78-831): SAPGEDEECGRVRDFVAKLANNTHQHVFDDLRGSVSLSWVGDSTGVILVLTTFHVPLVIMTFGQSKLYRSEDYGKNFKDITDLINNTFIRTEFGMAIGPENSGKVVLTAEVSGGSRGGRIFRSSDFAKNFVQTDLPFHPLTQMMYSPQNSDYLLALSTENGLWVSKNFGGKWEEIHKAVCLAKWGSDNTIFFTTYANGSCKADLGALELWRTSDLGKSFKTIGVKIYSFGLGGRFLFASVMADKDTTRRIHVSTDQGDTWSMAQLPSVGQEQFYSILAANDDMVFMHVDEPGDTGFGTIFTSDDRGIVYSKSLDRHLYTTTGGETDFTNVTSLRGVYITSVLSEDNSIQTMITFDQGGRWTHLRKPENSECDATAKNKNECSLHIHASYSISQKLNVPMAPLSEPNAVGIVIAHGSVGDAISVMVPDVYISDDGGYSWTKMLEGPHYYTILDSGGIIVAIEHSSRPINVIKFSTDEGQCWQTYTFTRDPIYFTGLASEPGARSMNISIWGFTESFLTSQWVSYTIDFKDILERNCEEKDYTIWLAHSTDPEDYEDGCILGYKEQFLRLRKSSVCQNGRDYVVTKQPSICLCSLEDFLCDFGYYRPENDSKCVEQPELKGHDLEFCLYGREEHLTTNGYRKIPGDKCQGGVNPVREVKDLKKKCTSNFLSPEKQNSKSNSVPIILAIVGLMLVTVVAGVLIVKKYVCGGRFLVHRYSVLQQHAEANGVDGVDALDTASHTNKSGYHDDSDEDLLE
Chain of hSortilin (Q99523 34-755): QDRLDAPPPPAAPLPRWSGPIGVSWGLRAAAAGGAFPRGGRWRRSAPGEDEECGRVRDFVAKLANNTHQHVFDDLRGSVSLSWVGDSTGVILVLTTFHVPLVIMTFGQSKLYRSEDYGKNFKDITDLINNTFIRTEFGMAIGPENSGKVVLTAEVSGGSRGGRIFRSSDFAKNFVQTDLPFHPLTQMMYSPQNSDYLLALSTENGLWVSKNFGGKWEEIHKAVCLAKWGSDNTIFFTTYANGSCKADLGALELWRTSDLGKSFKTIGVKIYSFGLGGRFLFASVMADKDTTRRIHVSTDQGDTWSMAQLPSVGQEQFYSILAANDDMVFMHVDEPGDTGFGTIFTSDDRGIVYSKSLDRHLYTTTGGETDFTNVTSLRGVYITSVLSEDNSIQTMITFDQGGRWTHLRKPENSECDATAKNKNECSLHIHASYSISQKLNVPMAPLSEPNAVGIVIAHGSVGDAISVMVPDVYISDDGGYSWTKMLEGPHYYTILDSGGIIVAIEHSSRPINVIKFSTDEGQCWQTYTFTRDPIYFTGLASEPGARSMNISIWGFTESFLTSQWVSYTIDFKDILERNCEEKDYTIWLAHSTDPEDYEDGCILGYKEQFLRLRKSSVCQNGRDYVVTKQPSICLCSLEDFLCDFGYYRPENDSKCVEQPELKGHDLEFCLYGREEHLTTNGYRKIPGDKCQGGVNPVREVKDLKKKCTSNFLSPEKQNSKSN

On to `Cc1cccc(NC(=O)c2ccc(C(F)(F)F)cc2C(=O)O)n1` [Example 1, N-(6-Methyl-pyridin-2-yl)-5-trifluoromethyl-phthalamic acid], for which the “PGRN levels in cell culture media, competition paradigm (FIG. 1)” value in test [1] is “increase in PGRN levels”.
Turning to `Cc1cccnc1NC(=O)c1ccc(Br)cc1C(=O)O` [Example 27, 5-Bromo-N-(3-methyl-pyridin-2-yl)-phthalamic acid], the inhibition (as a rule, how much of the control response was suppressed) at 50 µM on hSortilin was found to be 64%.
On the same count and under the same terms, to `Cc1ccc(NC(=O)c2ccc(Br)cc2C(=O)O)cn1` [Example 31, 5-Bromo-N-(6-methyl-pyridin-3-yl)-phthalamic acid] belongs 70%.
On to “scrambled neurotensin: scrambled neurotensin, sequence LIYPRNEYELRKP (SEQ ID NO:1); does not bind sortilin, negative control (Scrambled Human Neurotensin) [reference compound]”, for which, in test [1], the “PGRN levels in cell culture media, competition paradigm (FIG. 1)” value was “did not have any effect”.

Values taken from patent US10195186B2.
